Experimental data reported in the supplement of paper PMC13207355.

Legend:
Conditions in all cases: exposure time: 72 h
[1] = test system: E13 (patient-derived glioblastoma stem cells of classical subtype); assay: surviving fraction (nuclei count normalised to DMSO); higher = more cells surviving (less toxic)
[2] = test system: E21 (patient-derived glioblastoma stem cells of mesenchymal subtype); assay: as above
[3] = test system: E28 (patient-derived glioblastoma stem cells of classical subtype); assay: as above
[4] = test system: E31 (patient-derived glioblastoma stem cells of proneural subtype); assay: as above
[5] = test system: E34 (patient-derived glioblastoma stem cells of proneural subtype); assay: as above
[6] = test system: E57 (patient-derived glioblastoma stem cells of mesenchymal subtype); assay: as above
[7] = test system: FT3469 (normal neural stem cell line); assay: as above
[8] = test system: E13; assay: phenotypic distance (Euclidean, principal components) from DMSO controls (arbitrary units); higher = stronger morphological change
[9] = test system: E21; assay: as above
[10] = test system: E28; assay: as above
[11] = test system: E31; assay: as above
[12] = test system: E34; assay: as above
[13] = test system: E57; assay: as above
[14] = test system: FT3469; assay: as above
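For phenotypic distance (Euclidean, principal components) from DMSO controls in this document: cell Painting imaging in 384-well plates, CellProfiler features reduced to at least 20 principal components, Euclidean distance versus same-plate DMSO vehicle wells (0.1% v/v), median over six images per well.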
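For surviving fraction (nuclei count normalised to DMSO) in this document: nuclei counted by high-content imaging of Hoechst-stained cells in laminin-coated 384-well plates, relative to 0.1% DMSO vehicle wells, with staurosporine as cell-death control.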

Cc1ccc(/C=N/NC(=O)c2n[nH]c3c2CCCC3)cc1 [Suprafenacine]
Conditions	phenotypic distance	surviving fraction
[1], 4.1 nM	–	0.909
[1], 12.3 nM	–	0.853
[1], 37 nM	–	0.86
[1], 111.1 nM	–	0.536
[1], 333.3 nM	–	0.144
[1], 1000 nM	–	0.235
[1], 3000 nM	–	0.1
[2], 4.1 nM	–	0.963
[2], 12.3 nM	–	0.931
[2], 37 nM	–	0.982
[2], 111.1 nM	–	0.453
[2], 333.3 nM	–	0.0832
[2], 1000 nM	–	0.113
[2], 3000 nM	–	0.0664
[3], 4.1 nM	–	0.954
[3], 12.3 nM	–	0.896
[3], 37 nM	–	0.922
[3], 111.1 nM	–	0.742
[3], 333.3 nM	–	0.325
[3], 1000 nM	–	0.31
[3], 3000 nM	–	0.217
[4], 4.1 nM	–	0.95
[4], 12.3 nM	–	0.845
[4], 37 nM	–	0.709
[4], 111.1 nM	–	0.454
[4], 333.3 nM	–	0.0666
[4], 1000 nM	–	0.0444
[4], 3000 nM	–	0.0399
[5], 4.1 nM	–	1.01
[5], 12.3 nM	–	0.905
[5], 37 nM	–	0.938
[5], 111.1 nM	–	0.69
[5], 333.3 nM	–	0.409
[5], 1000 nM	–	0.375
[5], 3000 nM	–	0.237
[6], 4.1 nM	–	0.914
[6], 12.3 nM	–	0.922
[6], 37 nM	–	0.883
[6], 111.1 nM	–	0.685
[6], 333.3 nM	–	0.0911
[6], 1000 nM	–	0.0842
[6], 3000 nM	–	0.0511
[7], 4.1 nM	–	0.873
[7], 12.3 nM	–	0.804
[7], 37 nM	–	0.848
[7], 111.1 nM	–	0.492
[7], 333.3 nM	–	0.527
[7], 1000 nM	–	0.471
[7], 3000 nM	–	0.295
[8], 4.1 nM	0.782	–
[8], 12.3 nM	0.752	–
[8], 37 nM	1.13	–
[8], 111.1 nM	3.22	–
[8], 333.3 nM	7.1	–
[8], 1000 nM	7.86	–
[8], 3000 nM	5.88	–
[9], 4.1 nM	0.928	–
[9], 12.3 nM	0.73	–
[9], 37 nM	1.18	–
[9], 111.1 nM	4.45	–
[9], 333.3 nM	9.28	–
[9], 1000 nM	6.44	–
[9], 3000 nM	9.19	–
[10], 4.1 nM	0.615	–
[10], 12.3 nM	0.72	–
[10], 37 nM	0.724	–
[10], 111.1 nM	1.34	–
[10], 333.3 nM	3.15	–
[10], 1000 nM	4.1	–
[10], 3000 nM	5.78	–
[11], 4.1 nM	0.29	–
[11], 12.3 nM	1.07	–
[11], 37 nM	1.19	–
[11], 111.1 nM	2.14	–
[11], 333.3 nM	6.25	–
[11], 1000 nM	9.97	–
[11], 3000 nM	12.3	–
[12], 4.1 nM	0.442	–
[12], 12.3 nM	1.02	–
[12], 37 nM	0.706	–
[12], 111.1 nM	1.69	–
[12], 333.3 nM	5.34	–
[12], 1000 nM	6.45	–
[12], 3000 nM	8.8	–
[13], 4.1 nM	1.71	–
[13], 12.3 nM	0.929	–
[13], 37 nM	0.819	–
[13], 111.1 nM	3.04	–
[13], 333.3 nM	5.2	–
[13], 1000 nM	5.41	–
[13], 3000 nM	6.18	–
[14], 4.1 nM	1.07	–
[14], 12.3 nM	1.84	–
[14], 37 nM	1.31	–
[14], 111.1 nM	2.86	–
[14], 333.3 nM	3.59	–
[14], 1000 nM	3.7	–
[14], 3000 nM	6.28	–

Cn1ncnc1[C@H]1c2n[nH]c(=O)c3cc(F)cc(c23)N[C@@H]1c1ccc(F)cc1 [Talazoparib]
Conditions	phenotypic distance	surviving fraction
[1], 4.1 nM	–	0.705
[1], 12.3 nM	–	0.673
[1], 37 nM	–	0.629
[1], 111.1 nM	–	0.593
[1], 333.3 nM	–	0.548
[1], 1000 nM	–	0.461
[1], 3000 nM	–	0.51
[2], 4.1 nM	–	0.755
[2], 12.3 nM	–	0.777
[2], 37 nM	–	0.709
[2], 111.1 nM	–	0.629
[2], 333.3 nM	–	0.565
[2], 1000 nM	–	0.403
[2], 3000 nM	–	0.292
[3], 4.1 nM	–	0.503
[3], 12.3 nM	–	0.47
[3], 37 nM	–	0.44
[3], 111.1 nM	–	0.418
[3], 333.3 nM	–	0.388
[3], 1000 nM	–	0.395
[3], 3000 nM	–	0.3
[4], 4.1 nM	–	0.59
[4], 12.3 nM	–	0.663
[4], 37 nM	–	0.623
[4], 111.1 nM	–	0.534
[4], 333.3 nM	–	0.342
[4], 1000 nM	–	0.265
[4], 3000 nM	–	0.207
[5], 4.1 nM	–	0.623
[5], 12.3 nM	–	0.671
[5], 37 nM	–	0.556
[5], 111.1 nM	–	0.594
[5], 333.3 nM	–	0.561
[5], 1000 nM	–	0.503
[5], 3000 nM	–	0.48
[6], 4.1 nM	–	0.807
[6], 12.3 nM	–	0.735
[6], 37 nM	–	0.797
[6], 111.1 nM	–	0.676
[6], 333.3 nM	–	0.605
[6], 1000 nM	–	0.313
[6], 3000 nM	–	0.25
[7], 4.1 nM	–	0.637
[7], 12.3 nM	–	0.778
[7], 37 nM	–	0.657
[7], 111.1 nM	–	0.727
[7], 333.3 nM	–	0.648
[7], 1000 nM	–	0.636
[7], 3000 nM	–	0.569
[8], 4.1 nM	1.44	–
[8], 12.3 nM	1.97	–
[8], 37 nM	2.08	–
[8], 111.1 nM	2.45	–
[8], 333.3 nM	3.55	–
[8], 1000 nM	4.7	–
[8], 3000 nM	4.3	–
[9], 4.1 nM	4.97	–
[9], 12.3 nM	1.69	–
[9], 37 nM	2.19	–
[9], 111.1 nM	2.75	–
[9], 333.3 nM	3.08	–
[9], 1000 nM	4.5	–
[9], 3000 nM	5.21	–
[10], 4.1 nM	3.02	–
[10], 12.3 nM	2.65	–
[10], 37 nM	3.31	–
[10], 111.1 nM	3.57	–
[10], 333.3 nM	3.51	–
[10], 1000 nM	3.37	–
[10], 3000 nM	4.36	–
[11], 4.1 nM	1.5	–
[11], 12.3 nM	1.58	–
[11], 37 nM	1.6	–
[11], 111.1 nM	2.21	–
[11], 333.3 nM	2.86	–
[11], 1000 nM	2.1	–
[11], 3000 nM	2.79	–
[12], 4.1 nM	3.39	–
[12], 12.3 nM	3.64	–
[12], 37 nM	3.15	–
[12], 111.1 nM	3.62	–
[12], 333.3 nM	3.3	–
[12], 1000 nM	2.98	–
[12], 3000 nM	3.55	–
[13], 4.1 nM	1.57	–
[13], 12.3 nM	1.96	–
[13], 37 nM	1.65	–
[13], 111.1 nM	2.9	–
[13], 333.3 nM	3.02	–
[13], 1000 nM	6.02	–
[13], 3000 nM	6.4	–
[14], 4.1 nM	2.18	–
[14], 12.3 nM	1.53	–
[14], 37 nM	1.5	–
[14], 111.1 nM	1.69	–
[14], 333.3 nM	1.74	–
[14], 1000 nM	1.99	–
[14], 3000 nM	2.44	–

Cn1nnc2c(C(N)=O)ncn2c1=O [Temozolomide]
Conditions	phenotypic distance	surviving fraction
[1], 4.1 nM	–	0.934
[1], 12.3 nM	–	0.862
[1], 37 nM	–	0.932
[1], 111.1 nM	–	0.981
[1], 333.3 nM	–	0.909
[1], 1000 nM	–	0.936
[1], 3000 nM	–	1.04
[2], 4.1 nM	–	0.919
[2], 12.3 nM	–	0.974
[2], 37 nM	–	0.955
[2], 111.1 nM	–	0.899
[2], 333.3 nM	–	0.883
[2], 1000 nM	–	0.988
[2], 3000 nM	–	0.862
[3], 4.1 nM	–	0.981
[3], 12.3 nM	–	0.95
[3], 37 nM	–	1.11
[3], 111.1 nM	–	1.02
[3], 333.3 nM	–	1.06
[3], 1000 nM	–	0.921
[3], 3000 nM	–	0.979
[4], 4.1 nM	–	0.882
[4], 12.3 nM	–	0.904
[4], 37 nM	–	0.833
[4], 111.1 nM	–	1.02
[4], 333.3 nM	–	1.02
[4], 1000 nM	–	0.972
[4], 3000 nM	–	0.803
[5], 4.1 nM	–	0.988
[5], 12.3 nM	–	0.89
[5], 37 nM	–	1.01
[5], 111.1 nM	–	0.947
[5], 333.3 nM	–	1.06
[5], 1000 nM	–	1.02
[5], 3000 nM	–	1.07
[6], 4.1 nM	–	0.946
[6], 12.3 nM	–	0.909
[6], 37 nM	–	0.95
[6], 111.1 nM	–	0.958
[6], 333.3 nM	–	0.951
[6], 1000 nM	–	0.953
[6], 3000 nM	–	0.931
[7], 4.1 nM	–	1.01
[7], 12.3 nM	–	0.927
[7], 37 nM	–	1
[7], 111.1 nM	–	0.936
[7], 333.3 nM	–	1.18
[7], 1000 nM	–	0.822
[7], 3000 nM	–	1.04
[8], 4.1 nM	0.92	–
[8], 12.3 nM	0.797	–
[8], 37 nM	0.786	–
[8], 111.1 nM	0.576	–
[8], 333.3 nM	0.8	–
[8], 1000 nM	0.525	–
[8], 3000 nM	0.666	–
[9], 4.1 nM	1.04	–
[9], 12.3 nM	0.604	–
[9], 37 nM	0.561	–
[9], 111.1 nM	0.642	–
[9], 333.3 nM	1.07	–
[9], 1000 nM	0.394	–
[9], 3000 nM	0.971	–
[10], 4.1 nM	0.473	–
[10], 12.3 nM	0.496	–
[10], 37 nM	0.568	–
[10], 111.1 nM	0.62	–
[10], 333.3 nM	0.378	–
[10], 1000 nM	0.593	–
[10], 3000 nM	0.453	–
[11], 4.1 nM	1.06	–
[11], 12.3 nM	2.72	–
[11], 37 nM	0.892	–
[11], 111.1 nM	0.246	–
[11], 333.3 nM	0.629	–
[11], 1000 nM	0.411	–
[11], 3000 nM	0.89	–
[12], 4.1 nM	0.82	–
[12], 12.3 nM	0.663	–
[12], 37 nM	0.714	–
[12], 111.1 nM	0.388	–
[12], 333.3 nM	0.867	–
[12], 1000 nM	0.392	–
[12], 3000 nM	0.466	–
[13], 4.1 nM	0.77	–
[13], 12.3 nM	0.543	–
[13], 37 nM	0.294	–
[13], 111.1 nM	0.599	–
[13], 333.3 nM	0.816	–
[13], 1000 nM	0.662	–
[13], 3000 nM	1.29	–
[14], 4.1 nM	1.43	–
[14], 12.3 nM	1.01	–
[14], 37 nM	0.484	–
[14], 111.1 nM	0.802	–
[14], 333.3 nM	0.852	–
[14], 1000 nM	0.793	–
[14], 3000 nM	0.513	–
